Measured values: patent US4487831A, “Process for the conversion of cellulose to glucose” (Research Corporation, priority 1982, dated 1984)
Where two headings read alike, the source gives them in different places.

Key:
[1] = test system: purified cellobiase from Aspergillus terreus (ATCC 20514); experiment: Km of purified cellobiase for cellobiose; type: biochemical; conditions: substrate cellobiose
Method: The activity on cellobiose was determined by two different methods. In the first method 0.4 ml of the substrate, 12.5 mM cellobiose in 0.0625M sodium citrate buffer (pH 4.8), was preheated to 50° C., then 0.1 ml of the preheated enzyme solution was added to the substrate and the tubes stoppered. Each sample was incubated for 1.5 minutes placed in a boiling water bath for 30 seconds and then immediately cooled in an ice bath. This reaction mixture was added to 5 ml of the glucose oxidase reagent from a glucose assay kit (Sigma Chemical Co.) and the amount of glucose produced from cellobiose hydrolysis was determined spectrophometrically.
In the second method the amount of glucose produced was measured on a high pressure liquid chromatograph. The cellobiose substrate consisted of 0.03M cellobiose in 0.075M sodium citrate buffer (pH 4.8). The substrate and enzyme solution was preheated to 50° C., then 0.25 ml of the enzyme solution was added to 0.5 ml of the substrate and incubated for 10 minutes. […]
Using cellobiose as the substrate, the purified cellobiase enzyme from Aspergillus terreus was capable of producing 215 micromoles of glucose from cellobiose per minute per milligram of enzyme protein. […] The specific activity of our purified cellobiase is expressed as 215 units per mg protein. […]

[2] = test system: cellobiase from Aspergillus phoenicis; conditions: Table 3; substrate cellobiose; as reported in the literature; cited from earlier work
[3] = test system: cellobiase from Trichoderma reesei; conditions: Table 3; substrate cellobiose; as reported in the literature; cited from earlier work
[4] = biological target: purified cellobiase from Aspergillus terreus (ATCC 20514); experiment: Glucose inhibition of purified cellobiase, PNPG as substrate; type: biochemical
Method: The β-glucosidase activity was routinely determined using p-nitrophenyl-β-D-glucoside (PNPG) as the substrate. Two milliliters of a 10 mM PNPG solution in 0.05M sodium citrate buffer solution (pH 4.8) were heated to 50° C. Then […] of the enzyme solution was added to the substrate and incubated for 15 minutes. After incubation, 3 ml of 1.0M aqueous sodium carbonate solution were added to stop the reaction and develop the color. The absorbance was read at 400 nm and the amount of p-nitrophenol liberated was determined from a standard curve. The time of incubation varied depending on the activity of the enzyme preparation tested. A unit (IU) of activity was defined as the amount of enzyme required to liberate one micromole of p-nitrophenol per minute from the substrate.
Glucose is a competitive inhibitor of the cellobiase enzyme from Aspergillus terreus. […] The Ki is the concentration of inhibitor required to slow the reaction down to one-half its maximum velocity, therefore, the larger the Ki the less inhibitory the inhibitor is.

[5] = biological target: T1, cellobiase from Alcaligenes faecalis (Agrobacterium sp., UniProt P12614); conditions: read-out: Ki (molar); Table 4; inhibitor glucose; type of inhibition competitive; reference (1) Ivanova et al 1980; cited from earlier work
T1 sequence (P12614 1-459): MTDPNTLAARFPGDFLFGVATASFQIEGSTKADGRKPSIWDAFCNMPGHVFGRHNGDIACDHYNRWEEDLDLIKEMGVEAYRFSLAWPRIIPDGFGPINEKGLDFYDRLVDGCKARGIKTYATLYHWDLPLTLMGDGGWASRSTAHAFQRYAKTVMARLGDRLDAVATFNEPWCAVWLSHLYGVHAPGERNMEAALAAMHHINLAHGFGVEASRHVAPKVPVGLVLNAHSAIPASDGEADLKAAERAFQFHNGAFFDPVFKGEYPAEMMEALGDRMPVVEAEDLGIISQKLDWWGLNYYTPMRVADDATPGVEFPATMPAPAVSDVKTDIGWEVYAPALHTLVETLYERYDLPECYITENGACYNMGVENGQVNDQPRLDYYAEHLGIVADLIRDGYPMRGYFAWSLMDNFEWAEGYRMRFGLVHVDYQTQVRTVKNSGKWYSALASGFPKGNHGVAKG

[6] = biological target: cellobiase from Lenzites trabes; conditions: Table 4; inhibitor glucose; type of inhibition noncompetitive; reference (2) Herr et al 1978; cited from earlier work
[7] = biological target: cellobiase from Phanerochaete chrysosporium; conditions: Table 4; inhibitor glucose; type of inhibition competitive; reference (3) Smith and Gold 1979; cited from earlier work

Km ([1]; Table 3, read-out: Km) [µM] | Km ([1]; purified enzyme, pH 4.8, 50° C., read-out: affinity (Km) for cellobiose) [µM] | SMILES | Km [2] [µM] | Km [3] [µM] | Ki ([4]; Table 4, inhibitor glucose, type of inhibition competitive, read-out: Ki) [mM] | Ki ([4]; competitive inhibitor, p-nitrophenyl-β-D-glucoside as substrate, read-out: Ki dissociation constant for glucose) [mM] | Ki [5] [mM] | Ki [6] [mM] | Ki [7] [mM]
400 | 400 | OC[C@H]1O[C@@H](O[C@H]2[C@H](O)[C@@H](O)C(O)O[C@@H]2CO)[C@H](O)[C@@H](O)[C@@H]1O (stereo partly drawn) [cellobiose] | 750 | 3300 | – | – | – | – | –
– | – | OC[C@H]1OC(O)[C@H](O)[C@@H](O)[C@@H]1O (stereo partly drawn) [glucose] | – | – | 3.5 | 3.5 | 3 | 2.7 | 0.5
